# Assays:
# [1] = Tmax in Wistar rat at 10 mg/kg, po by LC-MS/MS analysis; format: ADME, organism-based; conditions: in vivo
# THP-1 [2] = assay: Anti-inflammatory activity in human THP-1 cells assessed as inhibition of IL-1beta protein expression incubated for 24 hrs by Western blot analysis; format: functional, cell-based; conditions: THP-1, 24 h
# [3] = Oral bioavailability in Sprague-Dawley rat at 10 mg/kg by LC-MS analysis; format: ADME, organism-based; conditions: in vivo
# THP-1 [4] = assay: Antiinflammatory activity against human THP-1 cells assessed as inhibition of LPS-induced TNF-alpha production; format: functional, cell-based
# [5] = Cmax in Wistar rat at 10 mg/kg, po by LC-MS/MS analysis; format: ADME, organism-based; conditions: in vivo
# [6] = Clearance in Sprague-Dawley rat at 10 mg/kg, iv by HPLC-MS analysis; format: ADME, organism-based; conditions: in vivo
# [7] = AUC in Sprague-Dawley rat at 10 mg/kg, po measured for 24 hrs by LC-MS/MS analysis; format: ADME, organism-based; conditions: in vivo
# RAW264.7 = assay: Anti-inflammatory activity in LPS-induced mouse RAW264.7 cells assessed as inhibition of IL-6 production; format: functional, cell-based
# [8] = Volume of distribution at steady state in Sprague-Dawley rat at 10 mg/kg, iv measured for 24 hrs by LC-MS/MS analysis; format: ADME, organism-based; conditions: in vivo, read-out: Vdss
# [9] = Oral bioavailability in rat; format: ADME, organism-based; conditions: in vivo
# [10] = Volume of distribution at steady state in ICR mouse at 2 mg/kg, iv; format: ADME, organism-based; conditions: in vivo, read-out: Vdss
# [11] = Oral bioavailability in ICR mouse; format: ADME, organism-based; conditions: in vivo
# [12] = MRT in ICR mouse at 5 mg/kg, iv by LC-MS/MS analysis; format: ADME, organism-based; conditions: in vivo
# [13] = Volume of distribution at steady state in Wistar rat at 3 mg/kg, iv; format: ADME, organism-based; conditions: in vivo, read-out: Vdss
# [14] = Cmax in ICR mouse at 5 mg/kg, iv by LC-MS/MS analysis; format: ADME, organism-based; conditions: in vivo
# [15] = Cmax in Wistar rat at 3 mg/kg, iv; format: ADME, organism-based; conditions: in vivo
# [16] = Tmax in ICR mouse at 5 mg/kg, iv; format: ADME, organism-based; conditions: in vivo
# [17] = Clearance in ICR mouse at 2 mg/kg, iv; format: ADME, organism-based; conditions: in vivo
# [18] = Clearance in Wistar rat at 3 mg/kg, iv; format: ADME, organism-based; conditions: in vivo
# [19] = biological target: Mitogen-activated protein kinase 3 (Homo sapiens, UniProt P27361); assay: Inhibition of ERK1 (unknown origin)
# [20] = Oral bioavailability in rat at 2 mg/kg by LC-MS/MS analysis; format: ADME, organism-based; conditions: in vivo
# [21] = biological target: Mitogen-activated protein kinase kinase kinase 7 (Homo sapiens, UniProt O43318); assay: Inhibition of TAK1 (unknown origin)
# [22] = AUC (0 to t) in Sprague-Dawley rat at 30 mg/kg, po by LC-MS analysis; format: ADME, organism-based; conditions: in vivo
# [23] = Plasma protein binding in Sprague-Dawley rat assessed as unbound fraction at 1 uM incubated for 6 hrs by LC-MS/MS analysis; format: ADME, cell-free
# [24] = Half life in Sprague-Dawley rat at 20 mg/kg, po by LC-MS/MS analysis; format: ADME, organism-based; conditions: in vivo
# [25] = AUC (0 to infinity) in Sprague-Dawley rat at 20 mg/kg, po measured for 24 hrs by LC-MS/MS analysis; format: ADME, organism-based; conditions: in vivo
# [26] = Half life in Sprague-Dawley rat at 10 mg/kg, po by LC-MS/MS analysis; format: ADME, organism-based; conditions: in vivo
# Homo sapiens [27] = organism: Homo sapiens; assay: Inhibition of MKK6 (unknown origin) at 10 uM relative to control
# [28] = biological target: Casein kinase I isoform alpha (Homo sapiens) (UniProt P48729); assay: Inhibition of CK1 alpha (unknown origin) at 10 uM relative ton control
# [29] = Plasma protein binding in cynomolgus monkey assessed as unbound fraction at 10 uM incubated for 6 hrs by LC-MS/MS analysis; format: ADME, cell-free, Macaca fascicularis
# [30] = Tmax in Sprague-Dawley rat at 10 mg/kg, po by LC-MS analysis; format: ADME, organism-based; conditions: in vivo
# [31] = AUC (0 to infinity) in Sprague-Dawley rat at 50 mg/kg, po by LC-MS/MS analysis; format: ADME, organism-based; conditions: in vivo
# [32] = AUC (0 to t) in Sprague-Dawley rat at 20 mg/kg, po by LC-MS analysis; format: ADME, organism-based; conditions: in vivo
# [33] = Plasma protein binding in Sprague-Dawley rat assessed as unbound fraction at 10 uM incubated for 6 hrs by LC-MS/MS analysis; format: ADME, cell-free
# [34] = AUC (0 to infinity) in Sprague-Dawley rat at 30 mg/kg, po by LC-MS/MS analysis; format: ADME, organism-based; conditions: in vivo
# Homo sapiens [35] = organism: Homo sapiens; assay: Inhibition of P70S6K (unknown origin) in presence of 10 uM ATP by Z'-LYTE biochemical assay relative to control
# [36] = Plasma protein binding in human assessed as unbound fraction at 10 uM incubated for 6 hrs by LC-MS/MS analysis; format: ADME, cell-free
# [37] = AUC (0 to t) in Sprague-Dawley rat at 10 mg/kg, po by LC-MS analysis; format: ADME, organism-based; conditions: in vivo
# [38] = Tmax in Sprague-Dawley rat at 30 mg/kg, po by LC-MS analysis; format: ADME, organism-based; conditions: in vivo
# [39] = AUC (0 to t) in Beagle dog at 40 mg/kg, po by LC-MS/MS analysis; format: ADME, organism-based, Canis lupus familiaris; conditions: in vivo
# [40] = Plasma protein binding in Sprague-Dawley rat assessed as unbound fraction at 30 uM incubated for 6 hrs by LC-MS/MS analysis; format: ADME, cell-free
# [41] = Tmax in Sprague-Dawley rat at 50 mg/kg, po by LC-MS analysis; format: ADME, organism-based; conditions: in vivo
# [42] = Plasma protein binding in cynomolgus monkey assessed as unbound fraction at 1 uM incubated for 6 hrs by LC-MS/MS analysis; format: ADME, cell-free, Macaca fascicularis
# [43] = Plasma protein binding in human assessed as unbound fraction at 1 uM incubated for 6 hrs by LC-MS/MS analysis; format: ADME, cell-free
# [44] = biological target: 3',5'-cyclic-AMP phosphodiesterase 4C (Homo sapiens, UniProt Q08493); assay: Inhibition of PDE4C (unknown origin)
# [45] = Half life in Sprague-Dawley rat at 30 mg/kg, po by LC-MS/MS analysis; format: ADME, organism-based; conditions: in vivo
# [46] = Cmax in Sprague-Dawley rat at 50 mg/kg, po by LC-MS analysis; format: ADME, organism-based; conditions: in vivo
# [47] = biological target: 3',5'-cyclic-AMP phosphodiesterase 4B (Homo sapiens, UniProt Q07343); assay: Inhibition of PDE4B1 (unknown origin)
# [48] = biological target: Mitogen-activated protein kinase 14 (Homo sapiens) (UniProt Q16539); assay: Inhibition of p38alpha (unknown origin) at 10 uM in presence of ATP relative to control
# [49] = Cmax in Sprague-Dawley rat at 10 mg/kg, po by LC-MS analysis; format: ADME, organism-based; conditions: in vivo
# [50] = Half life in Sprague-Dawley rat at 50 mg/kg, po by LC-MS/MS analysis; format: ADME, organism-based; conditions: in vivo
# [51] = Plasma protein binding in human assessed as unbound fraction at 30 uM incubated for 6 hrs by LC-MS/MS analysis; format: ADME, cell-free
# [52] = AUC (0 to infinity) in Sprague-Dawley rat at 20 mg/kg, po by LC-MS/MS analysis; format: ADME, organism-based; conditions: in vivo
# [53] = Plasma protein binding in cynomolgus monkey assessed as unbound fraction at 30 uM incubated for 6 hrs by LC-MS/MS analysis; format: ADME, cell-free, Macaca fascicularis
# [54] = biological target: CDK7/Cyclin H/MNAT1 (Homo sapiens) (UniProt P51946+P50613+P51948); assay: Inhibition of CDK7/cyclinH/MAT1 (unknown origin) at 10 uM in presence of ATP relative to control; format: protein-complex assay
# [55] = AUC (0 to t) in Sprague-Dawley rat at 50 mg/kg, po by LC-MS analysis; format: ADME, organism-based; conditions: in vivo
# [56] = AUC (0 to infinity) in Sprague-Dawley rat at 10 mg/kg, po by LC-MS/MS analysis; format: ADME, organism-based; conditions: in vivo
# [57] = biological target: Cyclin-dependent kinase 18 (Homo sapiens) (UniProt Q07002); assay: Inhibition of CDK18 (unknown origin) at 10 uM relative to control
# [58] = Tmax in Sprague-Dawley rat at 20 mg/kg, po by LC-MS analysis; format: ADME, organism-based; conditions: in vivo
# [59] = Cmax in Sprague-Dawley rat at 20 mg/kg, po measured for 24 hrs by LC-MS/MS analysis; format: ADME, organism-based; conditions: in vivo
# [60] = Oral bioavailability in ICR mouse at […] by LC-MS/MS analysis; format: ADME, organism-based; conditions: in vivo, dose 0.25 mg/kg
# [61] = AUC in rat at 30 mg/kg, po; format: ADME, organism-based; conditions: in vivo
# Chain of Mitogen-activated protein kinase 3 (P27361 whole entry): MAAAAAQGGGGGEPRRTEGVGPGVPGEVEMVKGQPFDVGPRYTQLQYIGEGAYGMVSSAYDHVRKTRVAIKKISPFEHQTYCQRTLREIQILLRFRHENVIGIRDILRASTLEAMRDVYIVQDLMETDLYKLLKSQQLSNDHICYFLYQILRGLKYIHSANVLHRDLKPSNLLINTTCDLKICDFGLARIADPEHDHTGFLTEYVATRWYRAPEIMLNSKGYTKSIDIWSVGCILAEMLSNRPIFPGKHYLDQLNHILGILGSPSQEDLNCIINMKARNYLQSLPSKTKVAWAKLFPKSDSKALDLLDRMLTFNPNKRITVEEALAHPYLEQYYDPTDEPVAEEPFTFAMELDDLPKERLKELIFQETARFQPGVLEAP
# Chain of Cyclin-dependent kinase 18 (Homo sapiens) (Q07002 whole entry): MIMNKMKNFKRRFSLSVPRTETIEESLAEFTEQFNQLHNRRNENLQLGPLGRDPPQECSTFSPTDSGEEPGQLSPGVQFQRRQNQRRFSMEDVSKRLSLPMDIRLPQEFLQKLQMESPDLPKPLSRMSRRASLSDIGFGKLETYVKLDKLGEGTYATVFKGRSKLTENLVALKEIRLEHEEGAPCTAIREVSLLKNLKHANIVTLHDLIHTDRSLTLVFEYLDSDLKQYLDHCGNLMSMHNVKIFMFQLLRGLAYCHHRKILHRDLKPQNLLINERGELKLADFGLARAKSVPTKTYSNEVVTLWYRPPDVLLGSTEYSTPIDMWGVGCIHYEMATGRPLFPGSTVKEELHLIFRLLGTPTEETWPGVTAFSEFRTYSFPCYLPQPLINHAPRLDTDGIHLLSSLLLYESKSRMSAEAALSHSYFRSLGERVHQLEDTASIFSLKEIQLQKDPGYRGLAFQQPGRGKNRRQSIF
# Chain of 3',5'-cyclic-AMP phosphodiesterase 4B (Q07343 whole entry): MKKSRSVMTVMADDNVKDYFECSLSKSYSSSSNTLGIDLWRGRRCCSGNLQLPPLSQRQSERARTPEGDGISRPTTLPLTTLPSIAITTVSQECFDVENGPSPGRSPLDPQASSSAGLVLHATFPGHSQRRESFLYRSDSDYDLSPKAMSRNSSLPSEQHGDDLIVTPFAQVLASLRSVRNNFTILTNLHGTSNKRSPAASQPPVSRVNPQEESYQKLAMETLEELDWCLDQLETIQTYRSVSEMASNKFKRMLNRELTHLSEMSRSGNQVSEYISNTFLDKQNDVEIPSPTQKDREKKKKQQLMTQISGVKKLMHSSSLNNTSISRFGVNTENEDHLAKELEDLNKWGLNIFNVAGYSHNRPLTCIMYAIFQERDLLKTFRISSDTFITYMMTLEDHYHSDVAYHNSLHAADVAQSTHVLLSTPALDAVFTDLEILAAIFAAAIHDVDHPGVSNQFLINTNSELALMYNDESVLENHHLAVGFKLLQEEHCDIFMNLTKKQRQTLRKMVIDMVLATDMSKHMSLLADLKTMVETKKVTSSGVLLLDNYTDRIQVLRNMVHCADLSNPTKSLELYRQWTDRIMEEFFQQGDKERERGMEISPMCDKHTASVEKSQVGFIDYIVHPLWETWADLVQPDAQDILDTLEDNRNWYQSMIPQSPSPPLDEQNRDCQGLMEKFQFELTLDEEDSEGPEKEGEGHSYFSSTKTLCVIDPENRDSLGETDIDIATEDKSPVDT
# Chain of 3',5'-cyclic-AMP phosphodiesterase 4C (Q08493 whole entry): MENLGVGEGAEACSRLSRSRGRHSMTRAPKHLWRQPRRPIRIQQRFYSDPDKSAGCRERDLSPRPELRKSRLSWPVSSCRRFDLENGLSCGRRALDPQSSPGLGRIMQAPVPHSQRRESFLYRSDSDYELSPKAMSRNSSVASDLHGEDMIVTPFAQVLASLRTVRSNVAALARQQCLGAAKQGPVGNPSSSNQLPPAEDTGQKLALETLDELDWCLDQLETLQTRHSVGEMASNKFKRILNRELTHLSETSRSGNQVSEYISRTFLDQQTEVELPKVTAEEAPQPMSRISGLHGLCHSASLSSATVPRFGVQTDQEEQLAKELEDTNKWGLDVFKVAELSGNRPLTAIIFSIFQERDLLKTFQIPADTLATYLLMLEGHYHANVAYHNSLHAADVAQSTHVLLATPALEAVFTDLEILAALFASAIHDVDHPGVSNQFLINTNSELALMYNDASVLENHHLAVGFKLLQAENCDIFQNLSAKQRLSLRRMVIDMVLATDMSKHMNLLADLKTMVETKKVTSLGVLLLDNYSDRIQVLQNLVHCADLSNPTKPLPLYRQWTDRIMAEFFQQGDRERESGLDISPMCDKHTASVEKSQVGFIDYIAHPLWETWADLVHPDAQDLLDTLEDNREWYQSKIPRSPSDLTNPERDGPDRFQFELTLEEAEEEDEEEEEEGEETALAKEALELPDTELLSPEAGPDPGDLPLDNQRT
# Chain of Casein kinase I isoform alpha (Homo sapiens) (P48729 2-337 limits assumed): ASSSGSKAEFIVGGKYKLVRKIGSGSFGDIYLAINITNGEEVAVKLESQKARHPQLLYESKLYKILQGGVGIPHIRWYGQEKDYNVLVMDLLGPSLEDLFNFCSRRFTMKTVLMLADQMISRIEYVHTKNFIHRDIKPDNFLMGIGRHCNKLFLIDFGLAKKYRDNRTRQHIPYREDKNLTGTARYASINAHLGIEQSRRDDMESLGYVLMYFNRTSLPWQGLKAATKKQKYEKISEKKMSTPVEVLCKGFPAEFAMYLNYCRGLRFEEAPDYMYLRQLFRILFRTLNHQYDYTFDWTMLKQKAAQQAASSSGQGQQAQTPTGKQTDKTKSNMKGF
# Chain of Mitogen-activated protein kinase 14 (Homo sapiens) (Q16539 whole entry): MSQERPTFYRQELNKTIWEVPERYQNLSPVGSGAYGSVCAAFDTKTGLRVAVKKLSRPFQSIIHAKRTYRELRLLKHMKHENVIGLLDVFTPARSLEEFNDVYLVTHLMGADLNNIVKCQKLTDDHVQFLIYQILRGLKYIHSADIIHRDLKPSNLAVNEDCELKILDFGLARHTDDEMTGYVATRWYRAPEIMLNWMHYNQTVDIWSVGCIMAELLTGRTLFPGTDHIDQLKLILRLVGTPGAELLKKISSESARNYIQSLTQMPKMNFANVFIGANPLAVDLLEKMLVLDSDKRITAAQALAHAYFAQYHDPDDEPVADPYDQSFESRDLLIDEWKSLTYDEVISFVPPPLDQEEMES
# Chain of Mitogen-activated protein kinase kinase kinase 7 (O43318 whole entry): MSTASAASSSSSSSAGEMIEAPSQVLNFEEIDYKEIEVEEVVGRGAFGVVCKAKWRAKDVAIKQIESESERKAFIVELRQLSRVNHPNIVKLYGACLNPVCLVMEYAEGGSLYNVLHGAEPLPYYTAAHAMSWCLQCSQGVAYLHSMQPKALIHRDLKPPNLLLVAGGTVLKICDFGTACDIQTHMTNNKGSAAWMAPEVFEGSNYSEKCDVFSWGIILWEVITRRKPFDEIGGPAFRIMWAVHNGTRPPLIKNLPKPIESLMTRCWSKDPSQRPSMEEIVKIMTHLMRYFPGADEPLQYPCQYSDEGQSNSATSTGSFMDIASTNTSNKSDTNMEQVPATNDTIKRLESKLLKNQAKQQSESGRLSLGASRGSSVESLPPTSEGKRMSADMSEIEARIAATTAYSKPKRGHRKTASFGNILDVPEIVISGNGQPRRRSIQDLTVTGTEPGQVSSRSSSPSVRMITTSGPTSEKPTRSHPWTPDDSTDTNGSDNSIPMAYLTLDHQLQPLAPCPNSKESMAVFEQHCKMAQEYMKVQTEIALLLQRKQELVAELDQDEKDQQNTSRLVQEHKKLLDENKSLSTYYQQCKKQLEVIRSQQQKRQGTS
compound,measurement,setting,value
Cn1c(=O)c(Oc2ccc(F)cc2F)cc2cnc(NC3CCOCC3)nc21 [R-1487],Tmax,[1],2 h
same,IC50,THP-1 [2],170 nM
same,bioavailability,[3],29.3%
same,IC50,THP-1 [4],800 nM
same,Cmax,[5],650 ng/mL
same,clearance,[6],20.7 mL/min/kg
same,AUC,[7],2.35 µg/h/mL
same,EC50,RAW264.7,10 nM
same,Vd,[8],1.94 L/kg
CCCNC(=O)c1cn2ncnc(Nc3cc(C(=O)NC4CC4)ccc3C)c2c1C [BMS-582949],bioavailability,[9],60%
same,Vd,[10],0.9 L/kg
same,bioavailability,[11],90%
same,MRT,[12],3.3 h
same,Vd,[13],1.1 L/kg
same,Cmax,[14],15300 nM
same,Cmax,[15],7000 nM
same,Tmax,[16],1 h
same,clearance,[17],4.4 mL/min/kg
same,clearance,[18],5.4 mL/min/kg
CCc1nc(-c2cccc(C)c2)c(-c2ccnc(NC(=O)c3ccccc3)c2)s1 [TAK-715],IC50,[19],> 10000 nM
same,bioavailability,[20],21.1%
same,IC50,[21],> 10000 nM
CC(=O)Nc1cc(-c2c(-c3ccc(F)cc3)nc([S+](C)[O-])n2C)ccn1 (configuration not stated),AUCt,[22],0.42 µM·h
same,"fraction unbound at 6 h, 1 µM",[23],0.863
same,half-life,[24],3.3 h
same,AUC,[25],2.24 µM·h
same,half-life,[26],2.7 h
same,inhibition,Homo sapiens [27],62%
same,inhibition,[28],97%
same,"fraction unbound at 6 h, 10 µM",[29],0.611
same,Tmax,[30],2.2 h
same,AUC,[31],3.58 µM·h
same,AUCt,[32],0.31 µM·h
same,"fraction unbound at 6 h, 10 µM",[33],0.631
same,AUC,[34],3.05 µM·h
same,inhibition,Homo sapiens [35],32%
same,"fraction unbound at 6 h, 10 µM",[36],0.806
same,AUCt,[37],0.95 µM·h
same,Tmax,[38],2.3 h
same,AUCt,[39],93.4 µM·h
same,"fraction unbound at 6 h, 30 µM",[40],0.754
same,Tmax,[41],1.5 h
same,"fraction unbound at 6 h, 1 µM",[42],0.667
same,"fraction unbound at 6 h, 1 µM",[43],0.9
same,IC50,[44],6400 nM
same,half-life,[45],3.4 h
same,Cmax,[46],590 nM
same,IC50,[47],1900 nM
same,inhibition,[48],35%
same,Cmax,[49],200 nM
same,half-life,[50],3.2 h
same,"fraction unbound at 6 h, 30 µM",[51],0.781
same,AUC,[52],2.24 µM·h
same,"fraction unbound at 6 h, 30 µM",[53],0.583
same,inhibition,[54],54%
same,AUCt,[55],3.4 µM·h
same,AUC,[56],1.04 µM·h
same,inhibition,[57],94%
same,Tmax,[58],2.9 h
same,Cmax,[59],314 nM
Cc1c(F)cc(C(=O)NC2CC2)cc1-c1ccc(C(=O)NCC(C)(C)C)cn1 [LOSMAPIMOD],bioavailability,[60],51%
same,AUC,[61],220 ng·h/mL
